From patent publication US7425218B2, “Nitric oxide-releasing medical devices” (The United States of America as represented by the …, priority 1992, dated 2008)
Where a name gives a salt, the structure may show the parent alone.

Experiment: decomposition and nitric oxide production at pH 7 and 25° C.
Type: physicochemical
Conditions: for half-life of decomposition: for the carbethoxy compound based on loss of the 252-nm chromophore in the UV spectrum
Experimental: The analysis of NO adducts, i.e., polymers containing the nitric oxide-releasing N2O2^− functional group, was done on a nitric oxide analyzer and was patterned after the procedure of Maragos et al., J. Med. Chem., 34, 3242-3247 (1991). A reactor vessel fitted with a septum was charged with a small aliquot of the polymer to be studied and the system was purged with helium for several minutes to remove traces of oxygen. […]
To a solution of 510 mg (1.97 mmol) of 1-(N-acetyl-L-methionyl)piperazine in 1 ml of methanol was added 428 μl (1.97 mmol) of 25% sodium methoxide in methanol. The system was degassed and charged with 40 psi of nitric oxide. After exposure of the solution to NO for 120 h, the pressure was released and the solid product was collected by filtration, washed with ether, and dried to give 27 mg of 1-[4-(N-acetyl-L-methionyl)piperazin-l-yl]-1-oxo-2-hydroxydiazene, sodium salt, as a white solid: UV λmax (ε) 252 nm (12.0 mM^−1 cm^−1).
A solution of 20 g (0.126 mol) of ethyl 1-piperazinecarboxylate in 60 ml of methanol was placed in a Parr bottle. The solution was treated with 27.4 ml (0.126 mol) of 25% sodium methoxide in methanol. The system was evacuated, charged with 40 psi of nitric oxide and kept at 25° C. for 48 h. The white crystalline product was collected by filtration and washed with cold methanol as well as with copious amounts of ether. The product was dried under vacuum to give a 14.5 g (48%) yield of 1-(4-carbethoxypiperazin-1-yl)-1-oxo-2-hydroxydiazene, sodium salt: mp 184-5° C.; UV (0.01 M NaOH) λmax (ε) 252 nm (10.4 mM^−1 cm^−1); NMR (D2O) δ 1.25 (t, 3 H), 3.11 (m, 2 H), 3.68 (m, 2 H), 4.15 (q, 2 H). Anal Calcd. for C6H13N4O4Na: C, 35.00%; H, 5.42%; N, 23.33%; Na, 9.58%. Found: C, 34.87%; H, 5.53%; N, 23.26%; Na, 9.69%. The half-life of this compound at pH 7 and 25° C. was 5 min. This measurement was based on the loss of the 252-nm chromophore in the ultraviolet spectrum.

Row | half-life of decomposition [min] | moles of NO produced per mole of test agent | Compound
1 | 5 |  | CCOC(=O)N1CCN([N+]([O-])=N[O-])CC1.[Na+] [1-(4-carbethoxypiperazin-1-yl)-1-oxo-2-hydroxydiazene, sodium salt]
2 | 6.9 | 1.72 moles of NO per mole of test agent | CSCC[C@H](NC(C)=O)C(=O)N1CCN([N+]([O-])=NO)CC1 [1-[4-(N-acetyl-L-methionyl)piperazin-l-yl]-1-oxo-2-hydroxydiazene, sodium salt]
